{"source": "patent US20140234988A1", "about": "“Methods for Diagnosing and Treating Medical Conditions Associated With Oxidative Stress” (priority 2011, published 2014)", "key": {"[1]": {"biological_target": "human serum albumin, binding site II (plasma of patients with sepsis) (Homo sapiens, UniProt P02768)", "sequence (P02768 25-609)": "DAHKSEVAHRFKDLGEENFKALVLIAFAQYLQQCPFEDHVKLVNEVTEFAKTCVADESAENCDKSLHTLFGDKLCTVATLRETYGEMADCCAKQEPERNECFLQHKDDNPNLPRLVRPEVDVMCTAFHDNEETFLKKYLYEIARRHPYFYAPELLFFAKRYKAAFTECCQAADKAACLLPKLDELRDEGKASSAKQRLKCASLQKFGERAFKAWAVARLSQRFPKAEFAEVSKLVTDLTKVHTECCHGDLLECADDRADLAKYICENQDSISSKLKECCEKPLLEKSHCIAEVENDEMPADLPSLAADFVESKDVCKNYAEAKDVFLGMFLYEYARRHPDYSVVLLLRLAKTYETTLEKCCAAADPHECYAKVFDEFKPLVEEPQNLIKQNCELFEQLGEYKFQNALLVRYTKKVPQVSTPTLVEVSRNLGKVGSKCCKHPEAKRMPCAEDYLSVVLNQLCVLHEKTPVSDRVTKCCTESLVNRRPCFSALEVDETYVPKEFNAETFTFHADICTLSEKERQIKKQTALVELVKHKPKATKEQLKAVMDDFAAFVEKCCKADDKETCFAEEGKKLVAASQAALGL", "conditions": "septic group vs controls", "method": "(§1) Plasma albumin concentrations were determined by using an automatic clinical chemical analyser (EuroLyser, Eurolyser Diagnostica, Salzburg, Austria).\nSerum samples were diluted with PBS and adjusted to an albumin concentration of 40 μM. Based on the 40 μM sample, a dilution series with final concentrations of 20 μM, 10 μM, and 5 μM albumin (in PBS) was made. Each of these samples (250 μl) was mixed with the same volume of 10 μM DS (Sigma-Aldrich, Vienna, Austria) solution. Unbound DS molecules were separated from the plasma components via ultrafiltration (Ultrafree-MC reg. Cellulose 30K, Millipore, Vienna, Austria) at 500 g for 10 min at room temperature. 150 μl of the flow through were put into HPLC vials. As a control, 10 μM DS was diluted with the same volume of Millipore water and ultrafiltered as described. For an external standard curve, a dilution series of DS with Millipore water (10 μM, 5 μM, 2.5 μM, and 1.25 μM) was prepared. 20 μl of the filtrate were then injected to the HPLC system. […] DS was detected by means of determining fluorescence at 482/350 nm using a Hitachi F1050 (Merck) detector. Quantificaton via the peak heights was done using the EZ Chrom Elite chromatography software (VWR, Vienna, Austria). From the straight line obtained by the graph of ln (free DS) vs. albumin, the albumin concentration binding half of the ligand was calculated and given as IC50 (μmol/l). […]"}, "[2]": {"biological_target": "human serum albumin, binding site II (plasma of patients with cirrhosis) (Homo sapiens, UniProt P02768)", "sequence (P02768 25-609)": "as above", "conditions": "cirrhotic patients vs controls", "from_the_text": "(§2) In blood samples derived from the study population (9 consecutive patients with acute-on-chronic liver failure (ACLF) being evaluated for extracorporeal liver support and 20 patients with cirrhosis who were candidates for liver transplantation), albumin was fractionated by HPLC as previously described (Kawai, K. et al. (2001) Tokai J. Exp. Clin. Med. 26, 93-99) resulting in three protein fractions representing cysteine 34 as free sulfhydryl form (HMA), as mixed disulfide (HNA1), or in a higher oxidation state (HNA2).\nas §1\n(§3) Serum samples were diluted with PBS and adjusted to an albumin concentration of 40 μM. Based on the 40 μM sample, a dilution series with final concentrations of 20 μM, 10 μM, and 5 μM albumin (in PBS) was made. Each of these samples (250 μl) was mixed with the same volume of 10 μM DS (Sigma-Aldrich, Vienna, Austria) solution. […] DS was detected by means of determining fluorescence at 482/350 nm using a Hitachi F1050 (Merck) detector. Quantificaton via the peak heights was done using the EZ Chrom Elite chromatography software (VWR, Vienna, Austria). From the straight line obtained by the graph of ln (free DS) vs. albumin, the albumin concentration binding half of the ligand was calculated and given as IC50 (μmol/l)."}, "[3]": {"biological_target": "human serum albumin, binding site II (plasma of patients with acute-on-chronic liver failure, ACLF) (Homo sapiens, UniProt P02768)", "sequence (P02768 25-609)": "as above", "conditions": "ACLF group vs controls", "from_the_text": "as §2, §1, §3"}}}
{"smiles": "CN(C)c1cccc2c(S(=O)(=O)N(C)CC(=O)O)cccc12", "note": "[dansylsarcosine]", "values": [{"measurement": "IC50-values, compared with controls", "setting": "[1]", "result": "IC50-values were increased in the septic and ACLF group"}, {"measurement": "DS binding, compared with controls", "setting": "[2]", "result": "no difference in DS binding between controls and cirrhotic patients"}, {"measurement": "IC50-values, compared with controls", "setting": "[3]", "result": "IC50-values were increased in the septic and ACLF group"}]}
